Results: patent US8575156B2, “Cyclic inhibitors of 11β-hydroxysteroid dehydrogenase 1” (Vitae Pharmaceuticals, Inc., priority 2007, dated 2013)

Target: 11β-HSD1 (Homo sapiens, UniProt P28845)
Test: biochemical
Settings: for IC50: IC50 Range, Biological Test Example 1, microsomes from CHO cells overexpressing human 11β-HSD1; for inhibition at 0.1 µM: read-out: Average % inhibition at 100 nM, Biological Test Example 1, 100 nM

Chain of 11β-HSD1 (P28845 whole entry): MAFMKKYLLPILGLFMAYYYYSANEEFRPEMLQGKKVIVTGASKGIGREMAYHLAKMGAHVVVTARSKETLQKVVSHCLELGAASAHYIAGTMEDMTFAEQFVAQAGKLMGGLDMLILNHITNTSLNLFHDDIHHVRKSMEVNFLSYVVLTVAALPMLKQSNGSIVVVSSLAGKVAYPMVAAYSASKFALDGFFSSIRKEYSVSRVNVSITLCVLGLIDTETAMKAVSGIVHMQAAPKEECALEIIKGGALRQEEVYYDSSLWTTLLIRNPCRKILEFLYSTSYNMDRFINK

SMILES | IC50 | inhibition at 0.1 µM
C[C@@H](c1ccc(-c2ccc(F)cc2)cc1)N1CC[C@](CCN2CC[C@H](F)C2)(c2ccc(F)cc2)OC1=O [EXAMPLE 465, (R)-3-((S)-1-(4′-fluorobiphenyl-4-yl)ethyl)-6-(4-fluorophenyl)-6-(2-((S)-3-fluoropyrrolidin-1-yl)ethyl)-1,3-oxazinan-2-one] | < 100 nM | 65%
C[C@@H](c1ccc(-c2ccc(F)cc2)cc1)N1CC[C@](CCN2CCNC(=O)C2)(c2ccc(F)cc2)OC1=O [EXAMPLE 467, (R)-3-((S)-1-(4′-fluorobiphenyl-4-yl)ethyl)-6-(4-fluorophenyl)-6-(2-(3-oxopiperazin-1-yl)ethyl)-1,3-oxazinan-2-one] | < 100 nM | 81.2%
C[C@@H](c1ccc(-c2ccccc2)cc1)N1CC[C@](CCO)(c2ccccc2)OC1=O [EXAMPLE 489, (S)-3-((S)-1-(biphenyl-4-yl)ethyl)-6-(2-hydroxyethyl)-6-phenyl-1,3-oxazinan-2-one] | < 100 nM | 98.3%
C[C@@H](c1ccc(-c2ccccc2)cc1)N1CC[C@](CCCO)(c2ccccc2)OC1=O [EXAMPLE 490, (R)-3-((S)-1-(biphenyl-4-yl)ethyl)-6-(3-hydroxypropyl)-6-phenyl-1,3-oxazinan-2-one] | < 100 nM | 94.8%
C[C@@H](c1ccc(-c2ccc(F)cc2)cc1)N1CC[C@](CCN2CCOCC2)(c2ccccc2)OC1=O [EXAMPLE 491, (R)-3-((S)-1-(4′-fluorobiphenyl-4-yl)ethyl)-6-(2-morpholinoethyl)-6-phenyl-1,3-oxazinan-2-one] | < 100 nM | 99.3%
C[C@@H](c1ccc(-c2ccc(F)cc2F)cc1)N1CC[C@](CCCOP(=O)(O)O)(c2ccccc2)OC1=O [EXAMPLE 492, 3-((R)-3-((S)-1-(2′,4′-difluorobiphenyl-4-yl)ethyl)-2-oxo-6-phenyl-1,3-oxazinan-6-yl)propyl dihydrogen phosphate] | < 100 nM | 87.7%
C[C@@H](c1ccc(-c2cccc(CN)c2)cc1)N1CC[C@](CCCO)(c2ccccc2)OC1=O [EXAMPLE 493, (R)-3-((S)-1-(3′-(aminomethyl)biphenyl-4-yl)ethyl)-6-(3-hydroxypropyl)-6-phenyl-1,3-oxazinan-2-one] | < 100 nM | 89.1%
C[C@@H](c1ccc(-c2ccc(CO)cc2)cc1)N1CC[C@](CCCO)(c2ccccc2)OC1=O [EXAMPLE 494, (R)-3-((S)-1-(4′-(hydroxymethyl)biphenyl-4-yl)ethyl)-6-(3-hydroxypropyl)-6-phenyl-1,3-oxazinan-2-one] | < 100 nM | 100%
C[C@@H](c1ccc(-c2ccc(CN)cc2)cc1)N1CC[C@](CCCO)(c2ccccc2)OC1=O [EXAMPLE 495, (R)-3-((S)-1-(4′-(aminomethyl)biphenyl-4-yl)ethyl)-6-(3-hydroxypropyl)-6-phenyl-1,3-oxazinan-2-one] | < 100 nM | 95.8%
C[C@@H](c1ccc(-c2ccc(F)cc2F)cc1)N1CC[C@](CCC(=O)O)(c2ccccc2)OC1=O [EXAMPLE 503, 3-((R)-3-((S)-1-(2′,4′-difluorobiphenyl-4-yl)ethyl)-2-oxo-6-phenyl-1,3-oxazinan-6-yl)propanoic acid] | < 100 nM | 90.1%
C[C@@H](c1ccc(Br)cc1)N1CC[C@](CCCN(C)S(C)(=O)=O)(c2ccccc2)OC1=O [EXAMPLE 514, N-(3-((R)-3-((S)-1-(4-bromophenyl)ethyl)-2-oxo-6-phenyl-1,3-oxazinan-6-yl)propyl)-N-methylmethanesulfonamide] | < 100 nM | 93.1%
C[C@@H](c1ccc(Br)cc1)N1CC[C@](CCN(C)S(C)(=O)=O)(c2ccccc2)OC1=O [EXAMPLE 529, N-(2-((S)-3-((S)-1-(4-bromophenyl)ethyl)-2-oxo-6-phenyl-1,3-oxazinan-6-yl)ethyl)-N-methylmethanesulfonamide] | < 100 nM | 93.7%
C[C@@H](c1ccc(C(F)(F)F)cc1)N1CC[C@](CCCO)(c2ccccc2)OC1=O [EXAMPLE 532, (R)-6-(3-hydroxypropyl)-6-phenyl-3-((S)-1-(4-(trifluoromethyl)phenyl)ethyl)-1,3-oxazinan-2-one] | < 100 nM | 96.3%
C[C@@H](c1ccc(Cl)cc1F)N1CC[C@](CCCO)(c2ccc(F)cc2)OC1=O [EXAMPLE 534, (R)-3-((S)-1-(4-chloro-2-fluorophenyl)ethyl)-6-(4-fluorophenyl)-6-(3-hydroxypropyl)-1,3-oxazinan-2-one] | < 100 nM | 98.5%
C[C@@H](c1ccc(Cl)c(F)c1)N1CC[C@](CCCNS(C)(=O)=O)(c2ccc(F)cc2)OC1=O [EXAMPLE 535, N-(3-((R)-3-((S)-1-(4-chloro-3-fluorophenyl)ethyl)-6-(4-fluorophenyl)-2-oxo-1,3-oxazinan-6-yl)propyl)methanesulfonamide] | < 100 nM | 96.8%

The next lines start with the values.

IC50 | inhibition at 0.1 µM | SMILES
< 100 nM | 55.3% | C[C@@H](c1ccc(-c2ccc(F)cc2)cc1)N1CC[C@](CCN2CC[C@@H](F)C2)(c2ccc(F)cc2)OC1=O [EXAMPLE 466, (R)-3-((S)-1-(4′-fluorobiphenyl-4-yl)ethyl)-6-(4-fluorophenyl)-6-(2-((R)-3-fluoropyrrolidin-1-yl)ethyl)-1,3-oxazinan-2-one]
< 100 nM | 97.8% | C[C@@H](c1ccc(Cl)c(F)c1)N1CC[C@](CCCO)(c2ccc(F)cc2)OC1=O [EXAMPLE 498, (R)-3-((S)-1-(4-chloro-3-fluorophenyl)ethyl)-6-(4-fluorophenyl)-6-(3-hydroxypropyl)-1,3-oxazinan-2-one]
< 100 nM | 98.2% | C[C@@H](c1ccc(Br)cc1)N1CC[C@](CC2(O)CC2)(c2ccc(F)cc2)OC1=O [EXAMPLE 500, (S)-3-((S)-1-(4-bromophenyl)ethyl)-6-(4-fluorophenyl)-6-((1-hydroxycyclopropyl)methyl)-1,3-oxazinan-2-one]
< 100 nM | 96.3% | C[C@@H](c1ccc(OCC(F)(F)F)cc1)N1CC[C@](CCC(N)=O)(c2ccc(F)cc2)OC1=O [EXAMPLE 505, 3-((R)-6-(4-fluorophenyl)-2-oxo-3-((S)-1-(4-(2,2,2-trifluoroethoxy)phenyl)ethyl)-1,3-oxazinan-6-yl)propanamide]
< 100 nM | 97.7% | CC(=O)N(C)CCC[C@]1(c2ccccc2)CCN([C@@H](C)c2ccc(Br)cc2)C(=O)O1 [EXAMPLE 506, N-(3-((R)-3-((S)-1-(4-bromophenyl)ethyl)-2-oxo-6-phenyl-1,3-oxazinan-6-yl)propyl)-N-methylacetamide]
< 100 nM | 96.1% | C[C@@H](c1ccc(Br)cc1)N1CC[C@](CCNS(C)(=O)=O)(c2ccccc2)OC1=O [EXAMPLE 507, N-(2-((S)-3-((S)-1-(4-bromophenyl)ethyl)-2-oxo-6-phenyl-1,3-oxazinan-6-yl)ethyl)methanesulfonamide]
< 100 nM | 84.4% | C[C@@H](c1ccc(Br)cc1)N1CC[C@](CCN2CCCS2(=O)=O)(c2ccccc2)OC1=O [EXAMPLE 513, (S)-3-((S)-1-(4-bromophenyl)ethyl)-6-(2-(1-dioxo-isothiazolidin-2-yl)ethyl)-6-phenyl-1,3-oxazinan-2-one]
< 100 nM | 98% | CC(C#N)C[C@]1(c2ccc(F)cc2)CCN([C@@H](C)c2ccc(Br)cc2)C(=O)O1 (stereo partly drawn) [EXAMPLE 520, 3-((R)-3-((S)-1-(4-bromophenyl)ethyl)-6-(4-fluorophenyl)-2-oxo-1,3-oxazinan-6-yl)-2-methylpropanenitrile]
< 100 nM | 97.5% | C[C@@H](c1ccc(Br)cc1)N1CC[C@](CC(C)(C)C(N)=O)(c2ccc(F)cc2)OC1=O [EXAMPLE 522, 3-((R)-3-((S)-1-(4-bromophenyl)ethyl)-6-(4-fluorophenyl)-2-oxo-1,3-oxazinan-6-yl)-2,2-dimethylpropanamide]
< 100 nM | 97.9% | C[C@@H](c1ccc(Br)cc1)N1CC[C@](CCC#N)(c2ccc(F)cc2)OC1=O [EXAMPLE 524, 3-((R)-3-((S)-1-(4-bromophenyl)ethyl)-6-(4-fluorophenyl)-2-oxo-1,3-oxazinan-6-yl)propanenitrile]
< 100 nM | 54.6% | C[C@@H](c1ccc(Br)cc1)N1CC[C@](CCC(=O)O)(c2ccc(F)cc2)OC1=O [EXAMPLE 526, 3-((R)-3-((S)-1-(4-bromophenyl)ethyl)-6-(4-fluorophenyl)-2-oxo-1,3-oxazinan-6-yl)propanoic acid]
< 100 nM | 89.7% | C[C@@H](c1ccc(Br)cc1)N1CC[C@](CC(=O)CO)(c2ccc(F)cc2)OC1=O [EXAMPLE 527, (S)-3-((S)-1-(4-bromophenyl)ethyl)-6-(4-fluorophenyl)-6-(3-hydroxy-2-oxopropyl)-1,3-oxazinan-2-one]
< 100 nM | 98.6% | C[C@@H](c1ccc(Br)cc1)N1CC[C@](CC(C)(C)CO)(c2ccc(F)cc2)OC1=O [EXAMPLE 528, (R)-3-((S)-1-(4-bromophenyl)ethyl)-6-(4-fluorophenyl)-6-(3-hydroxy-2,2-dimethylpropyl)-1,3-oxazinan-2-one]
< 100 nM | 73.3% | Cc1nnc(C[C@]2(c3ccccc3)CCN([C@@H](C)c3ccc(Br)cc3)C(=O)O2)o1 [EXAMPLE 530, (S)-3-((S)-1-(4-bromophenyl)ethyl)-6-((5-methyl-1,3,4-oxadiazol-2-yl)methyl)-6-phenyl-1,3-oxazinan-2-one]
< 100 nM | 73.5% | Cc1nnc(C[C@]2(c3ccccc3)CCN([C@@H](C)c3ccc(Br)cc3)C(=O)O2)s1 [EXAMPLE 531, (S)-3-((S)-1-(4-bromophenyl)ethyl)-6-((5-methyl-1,3,4-thiadiazol-2-yl)methyl)-6-phenyl-1,3-oxazinan-2-one]
< 100 nM | 94.5% | C[C@@H](c1ccc(Cl)c(F)c1)N1CC[C@](CCO)(c2ccc(F)cc2)OC1=O [EXAMPLE 533, (S)-3-((S)-1-(4-chloro-3-fluorophenyl)ethyl)-6-(4-fluorophenyl)-6-(2-hydroxyethyl)-1,3-oxazinan-2-one]
